According to patent publication US20250235520A1, “METHODS FOR REVERSING A SUPPRESSED IMMUNE STATE TO INCREASE SURVIVAL IN A SUBJECT” (priority 2022, published 2025):

Legend:
[1] = system: breast cancer patients with tumors expressing HER2 (HER2 3+); assay: Phase IIb trial (NCT00524277): disease free survival / recurrence; type: in vivo, human; details: HER2 3+ patients who completed the primary immunization series after trastuzumab; 5 years of follow-up
[2] = system: breast cancer patients with tumors expressing any degree of HER2; assay: Phase IIb trial: injection site reactions (ISRs), orthogonal mean of largest perpendicular diameters; type: in vivo, human
Procedure: Background: Delayed type hypersensitivity (DTH) skin tests in the randomized, active-controlled, single-blinded, multicenter Phase IIb trial investigating GLSI-100 (GP2+GM-CSF) administered in the adjuvant setting to node-positive and high-risk node-negative breast cancer patients with tumors expressing any degree of HER2 (immuno-histochemistry [IHC] 1-3+) (NCT00524277) were analyzed. The trial enrolled HLA-A*02 patients randomized to receive GLSI-100 versus GM-CSF alone. The trial's primary objective was to determine if treatment with GLSI-100, a HER2-derived peptide, reduces recurrence rates.
Methods: Patients were randomized and received GLSI-100 (500 micrograms (mcg) GP2 and 125 mcg GM-CSF) or control (GM-CSF) via 6 intradermal injections every 3-4 weeks for the first 6 months and 4 booster injections every 6 months. The magnitude of injection site reactions, which occurred in almost all patients, were assessed for the 10 doses administered by measuring the largest perpendicular diameters and the resulting orthogonal mean.

Substance	Kaplan-Meier estimated 5-year disease free survival (DFS) rate [1]	median orthogonal mean induration ([2]; after a single dose)	patients with injection site reactions ([2]; all treated patients)	difference in reactions, HER2 3+ control patients (Herceptin treated) smaller than HER2 1-2+ control patients ([2]; average over all 10 doses)	increase of injection site reactions by adding GP2 treatment ([2]; trastuzumab treated HER2 3+ patients vs GM-CSF control, average over all 10 doses)
GM-CSF: granulocyte macrophage colony-stimulating factor, adjuvant; control arm (called placebo) of the active-controlled trial	89.4%	7.8 mm	~100%	43.1 mm	–
Ile Ile Ser Ala Val Val Gly Ile Leu (IISAVVGIL) [GP2, 9 amino acid transmembrane peptide of the HER2/neu protein]	–	–	–	–	39.2 mm
